Data reported in patent US10143201B2, “Fungicidal compositions” (Syngenta Crop Protection LLC, priority 2007, dated 2018).
Several values for one entry are separate records, joined by “and”; a condition that tells them apart may be missing. Equal values may be shown once.

Columns and labels:
Phakopsora pachyrhizi = experiment: Action against Asian soybean rust, leaf disc test; format: in vivo; settings: 14 days after inoculation
Procedure: Example B-1: Action Against Asian Soybean Rust (Phakopsora pachyrhizi)—Leaf Disc Test
Whole soybean plants (variety brand Williams82) are treated with the recited active ingredients 4 weeks after planting. 1 day after spraying leaf disks are cut from the first trifoliate leaf. Five repetitions at each rate are conducted. The leaf disks are inoculated with Phakopsora pachyrhizi (Asian soybean rust) one day after treatment. Evaluation of the leaf disks is conducted fourteen days after inoculation and the mean percent infestation of the five repetitions is calculated. Standard EC100 formulations are used. The rates of the active ingredients used are given in Table B1 as g active ingredient (a.i.)/ha.

Botrytis cinerea = experiment: Fungicidal action against Botrytis cinerea (gray mould), microtiter growth inhibition; format: cell-based; settings: alone
Procedure: Example B2: Fungicidal Action Against Botrytis cinerea (Gray Mould)
(§1) Conidia of the fungus from cryogenic storage are directly mixed into nutrient broth (PDB potato dextrose broth). After placing a (DMSO) solution of the test compounds into a microtiter plate (96-well format) the nutrient broth containing the fungal spores is added. The test plates are incubated at 24° C. and the inhibition of growth is evaluated after 4 days. The expected fungicidal action is calculated according to the Colby method.

Septoria tritici = experiment: Fungicidal action against Septoria tritici (leaf blotch), microtiter growth inhibition; format: cell-based; settings: alone
Procedure: Example B3: Fungicidal Action Against Septoria tritici (Leaf Blotch)
as §1

Alternaria solani = experiment: Fungicidal action against Alternaria solani (early blight tomato/potato), microtiter growth inhibition; format: cell-based; settings: alone
Procedure: Example B4: Fungicidal Action Against Alternaria solani (Early Blight Tomato/Potato)
as §1, with “after 3” for “after 4”

[1] = test system: Pseudocercosporella herpotrichoides (syn. Tapesia yallundae); experiment: Fungicidal action against Pseudocercosporella herpotrichoides (eye spot of cereals), microtiter growth inhibition; format: cell-based; settings: alone
Procedure: Example B5: Funicidal Action Against Pseudocercosporella herpotrichoides (Syn. Tapesia yallundae), Eye Spot of Cereals
as §1

Pyrenophora teres = experiment: Fungicidal action against Pyrenophora teres (net blotch), microtiter growth inhibition; format: cell-based
Procedure: Example B6: Fungicidal Action Against Pyrenophora teres (Net Blotch)
as §1

Gaeumannomyces graminis = experiment: Fungicidal action against Gaeumannomyces graminis (take-all of cereals), microtiter growth inhibition; format: cell-based; settings: compound alone
Procedure: Example B7: Fungicidal Action Against Gaeumannomyces graminis (Take-all of Cereals)
as §1, with “Mycelial fragments” for “Conidia”, “24 C” for “24° C.”, “days.” for “days. The expected fungicidal action is calculated according to the Colby method.”

[2] = test system: Cercospora arachidicola (syn. Mycosphaerella arachidis); experiment: Fungicidal action against Cercospora arachidicola (brown leaf spot of groundnut), microtiter growth inhibition; format: cell-based; settings: compound alone
Procedure: Example B8: Fungicidal Action Against Cercospora arachidicola (Syn. Mycosphaerella arachidis), Brown Leaf Spot of Groundnut (Peanut)
as §1, with “24 C” for “24° C.”, “7” for “4”, “days.” for “days. The expected fungicidal action is calculated according to the Colby method.”

[3] = test system: Monopraphella nivalis (syn. Microdochium nivale, Fusarium nivale); experiment: Fungicidal action against Monopraphella nivalis (snow mould, foot rot of cereals), microtiter growth inhibition; format: cell-based; settings: compound alone; for inhibition at 0.25 ppm: 0.2500 ppm
Procedure: Example B9: Fungicidal Action Against Monopraphella nivalis (Syn. Microdochium nivale, Fusarium nivale), Snow Mould, Foot Rot of Cereals
as §1, with “24 C” for “24° C.”, “days.” for “days. The expected fungicidal action is calculated according to the Colby method.”

[4] = test system: Colletotrichum lagenarium (syn. Glomerella lagenarium); experiment: Fungicidal action against Colletotrichum lagenarium (anthracnose of cucurbits), microtiter growth inhibition; format: cell-based; settings: compound alone
Procedure: Example B10: Fungicidal Action Against Colletotrichum lagenarium (Syn. Glomerella lagenarium), Anthracnose of Cucurbits Conidia of the fungus from cryogenic storage are directly mixed into nutrient broth (PDB potato dextrose broth). After placing a (DMSO) solution of the test compounds into a microtiter plate (96-well format) the nutrient broth containing the fungal spores is added. The test plates are incubated at 24 C and the inhibition of growth is evaluated after 3 days.

[5] = Microdochium nivale, 0.0625 ppm
[6] = Microdochium nivale, 0.1250 ppm

## Cn1cc(C(=O)Nc2cccc3c2C2CCC3C2=C(Cl)Cl)c(C(F)F)n1 (centres unmarked) [Compound A-1.1, 3-difluoromethyl-1-methyl-1H-pyrazole-4-carboxylic acid (9-dichloromethylidene-benzonorbornene-5-yl)amide]
Phakopsora pachyrhizi; 31.25 g a.i./ha
  % Control of Phakopsora pachyrhizi: 36%
Phakopsora pachyrhizi; 62.5 g a.i./ha
  % Control of Phakopsora pachyrhizi: 36%
Phakopsora pachyrhizi; 125 g a.i./ha
  % Control of Phakopsora pachyrhizi: 82%
Phakopsora pachyrhizi; 250 g a.i./ha
  % Control of Phakopsora pachyrhizi: 87%
Botrytis cinerea; 0.0156 ppm
  % activity: 0%
Botrytis cinerea; 0.0313 ppm
  % activity: 0%
Botrytis cinerea; 0.0625 ppm
  % activity: 20%
Botrytis cinerea; 0.1250 ppm
  % activity: 20%
Botrytis cinerea; 0.5000 ppm
  % activity: 50% and 70%
Botrytis cinerea; 1.0000 ppm
  % activity: 90%
Septoria tritici; 0.0625 ppm
  % activity: 20%
Septoria tritici; 0.1250 ppm
  % activity: 50%
Septoria tritici; 0.2500 ppm
  % activity: 70%
Septoria tritici; 0.5000 ppm
  % activity: 90%
Alternaria solani; 0.0078 ppm
  % activity: 0%
Alternaria solani; 0.0156 ppm
  % activity: 20%
Alternaria solani; 0.0313 ppm
  % activity: 20%
Alternaria solani; 0.0625 ppm
  % activity: 50%
Alternaria solani; 0.1250 ppm
  % activity: 50%
Alternaria solani; 0.2500 ppm
  % activity: 50%
[1]; 0.0039 ppm
  % activity: 0%
[1]; 0.0078 ppm
  % activity: 0%
[1]; 0.0625 ppm
  % activity: 70%
Pyrenophora teres; 0.0078 ppm, alone
  % activity: 0%
Pyrenophora teres; 0.0313 ppm, alone
  % activity: 20%
Pyrenophora teres; 0.0625 ppm, alone
  % activity: 20%
Pyrenophora teres; 0.1250 ppm, alone
  % activity: 20%
Pyrenophora teres; 0.2500 ppm, alone
  % activity: 50%
Pyrenophora teres; compound alone, 0.0313 ppm
  % activity: 20%
Pyrenophora teres; compound alone, 0.0625 ppm
  % activity: 20%
Pyrenophora teres; compound alone, 0.2500 ppm
  % activity: 50%
Pyrenophora teres; compound alone, 0.5000 ppm
  % activity: 50% and 70%
Pyrenophora teres; compound alone, 1.0000 ppm
  % activity: 70%
Pyrenophora teres; compound alone, 2.0000 ppm
  % activity: 70%
Gaeumannomyces graminis; 0.0156 ppm
  % activity: 50% and 70%
[2]; 0.0039 ppm
  % activity: 0%
[2]; 0.0078 ppm
  % activity: 0%
[2]; 0.0156 ppm
  % activity: 20%
[2]; 0.0313 ppm
  % activity: 70%
[3]; 0.0313 ppm
  % activity: 20%
[3]; 0.0625 ppm
  % activity: 50%
[3]; 0.1250 ppm
  % activity: 90%

## CC(C)C1CCC(Cc2ccc(Cl)cc2)C1(O)Cn1cncn1 (centres unmarked) [Ipconazole]
[4]; Colletotrichum orbiculare, 0.1250 ppm
  inhibition at 0.125 ppm: 20%

## Cn1cc(C(=O)Nc2cccc3c2C2CCC3C2=C(Cl)Cl)c(C(F)(F)F)n1 (centres unmarked)
other
  melting point: 183 to 188 °C and 179 to 181 °C

## Cn1cc(C(=O)Nc2cccc3c2C2CCC3C2=C(Br)Br)c(C(F)F)n1 (centres unmarked) [Compound A-1.3, 3-difluoromethyl-1-methyl-1H-pyrazole-4-carboxylic acid (9-dibromomethylidene-benzonorbornene-5-yl)amide]
Phakopsora pachyrhizi; 31.25 g a.i./ha
  % Control of Phakopsora pachyrhizi: 36%
Phakopsora pachyrhizi; 62.5 g a.i./ha
  % Control of Phakopsora pachyrhizi: 36%
Phakopsora pachyrhizi; 125 g a.i./ha
  % Control of Phakopsora pachyrhizi: 54%
Phakopsora pachyrhizi; 250 g a.i./ha
  % Control of Phakopsora pachyrhizi: 93%

## Cn1cc(C(=O)Nc2cccc3c2C2CCC3C2=C(F)F)c(C(F)F)n1 (centres unmarked) [Compound A-1.2, 3-difluoromethyl-1-methyl-1H-pyrazole-4-carboxylic acid (9-difluoromethylidene-benzonorbornene-5-yl)amide]
Phakopsora pachyrhizi; 31.25 g a.i./ha
  % Control of Phakopsora pachyrhizi: 39%
Phakopsora pachyrhizi; 62.5 g a.i./ha
  % Control of Phakopsora pachyrhizi: 54%
Phakopsora pachyrhizi; 125 g a.i./ha
  % Control of Phakopsora pachyrhizi: 44%
Phakopsora pachyrhizi; 250 g a.i./ha
  % Control of Phakopsora pachyrhizi: 94%
Botrytis cinerea; 0.0313 ppm
  % activity: 0%
Botrytis cinerea; 0.1250 ppm
  % activity: 20%
Botrytis cinerea; 0.2500 ppm
  % activity: 20%
Botrytis cinerea; 0.5000 ppm
  % activity: 20%
Botrytis cinerea; 1.0000 ppm
  % activity: 50%
Botrytis cinerea; 2.0000 ppm
  % activity: 70%
Septoria tritici; 0.0078 ppm
  % activity: 0%
Septoria tritici; 0.0156 ppm
  % activity: 0%
Septoria tritici; 0.1250 ppm
  % activity: 0%
Septoria tritici; 0.2500 ppm
  % activity: 20%
Septoria tritici; 0.5000 ppm
  % activity: 50%
Septoria tritici; 1.0000 ppm
  % activity: 70%
Alternaria solani; 0.0313 ppm
  % activity: 0%
Alternaria solani; 0.1250 ppm
  % activity: 20%
Alternaria solani; 0.2500 ppm
  % activity: 50%
Alternaria solani; 0.5000 ppm
  % activity: 50%
[1]; 0.0039 ppm
  % activity: 0%
[1]; 0.0078 ppm
  % activity: 0%
[1]; 0.0156 ppm
  % activity: 0%
[1]; 0.0313 ppm
  % activity: 0%
[1]; 0.0625 ppm
  % activity: 0%
[1]; 0.5000 ppm
  % activity: 70%
Pyrenophora teres; 0.0078 ppm, alone
  % activity: 0%
Pyrenophora teres; 0.0156 ppm, alone
  % activity: 0%
Pyrenophora teres; 0.0313 ppm, alone
  % activity: 0%
Pyrenophora teres; 0.1250 ppm, alone
  % activity: 20%
Pyrenophora teres; 0.2500 ppm, alone
  % activity: 20%
Pyrenophora teres; compound alone, 0.0313 ppm
  % activity: 0%
Pyrenophora teres; compound alone, 0.1250 ppm
  % activity: 20%
Pyrenophora teres; compound alone, 0.2500 ppm
  % activity: 20%
Pyrenophora teres; compound alone, 0.5000 ppm
  % activity: 50%
Pyrenophora teres; compound alone, 1.0000 ppm
  % activity: 50%
Pyrenophora teres; compound alone, 2.0000 ppm
  % activity: 70%
Gaeumannomyces graminis; 0.0156 ppm
  % activity: 0%
Gaeumannomyces graminis; 0.0313 ppm
  % activity: 0%
Gaeumannomyces graminis; 0.0625 ppm
  % activity: 0%
Gaeumannomyces graminis; 0.1250 ppm
  % activity: 0%
Gaeumannomyces graminis; 0.5000 ppm
  % activity: 70% and 90%
[2]; 0.0156 ppm
  % activity: 0%
[2]; 0.0313 ppm
  % activity: 0%
[2]; 0.0625 ppm
  % activity: 0%
[2]; 0.1250 ppm
  % activity: 20%
[2]; 0.2500 ppm
  % activity: 70% and 50%
[3]; 1.0000 ppm
  % activity: 50%
[3]; 2.0000 ppm
  % activity: 70%
[4]; 0.0313 ppm
  % activity: 0%
[4]; 0.0625 ppm
  % activity: 0%
[4]; 0.1250 ppm
  % activity: 0%
[4]; 0.5000 ppm
  % activity: 20%
[4]; 1.0000 ppm
  % activity: 50%

## Cn1cc(C(=O)Nc2ccc(F)cc2-c2ccc(Cl)c(Cl)c2)c(C(F)F)n1 [Compound B-5.11, 3-difluoromethyl-1-methyl-1H-pyrazole-4-carboxylic acid (3′,4′-dichloro-5-fluoro-1,1′-biphenyl-2-yl)-amide]
[2]; Mycosphaerella arachidis, 0.0039 ppm, read-out: % activity
  inhibition at 0.0039 ppm: 0%
[2]; Mycosphaerella arachidis, 0.0078 ppm, read-out: % activity
  inhibition at 0.0078 ppm: 0%
[2]; Mycosphaerella arachidis, 0.0156 ppm
  inhibition at 0.0156 ppm: 20%
[2]; Mycosphaerella arachidis, 0.0313 ppm
  inhibition at 0.0313 ppm: 70%
[3]; Microdochium nivale, 0.0313 ppm
  inhibition at 0.0313 ppm: 0%
[3]; [5]
  inhibition at 0.0625 ppm: 0%
[3]; [6]
  inhibition at 0.125 ppm: 0%
[3]; Microdochium nivale
  inhibition at 0.25 ppm: 20%

## CC(Cc1ccc(C(C)(C)C)cc1)CN1C[C@@H](C)O[C@@H](C)C1 (some centres unmarked) [Fenpropimorph]
Gaeumannomyces graminis; Gaeumannomyces graminis, 0.2500 ppm
  inhibition at 0.25 ppm: 0%
Gaeumannomyces graminis; Gaeumannomyces graminis, 0.5000 ppm
  inhibition at 0.5 ppm: 0%
Gaeumannomyces graminis; Gaeumannomyces graminis, 1.0000 ppm
  inhibition at 1 ppm: 0%
Gaeumannomyces graminis; Gaeumannomyces graminis, 2.0000 ppm
  inhibition at 2 ppm: 20%
[2]; Mycosphaerella arachidis, 0.0625 ppm
  inhibition at 0.0625 ppm: 0%
[2]; Mycosphaerella arachidis, 0.1250 ppm
  inhibition at 0.125 ppm: 0%
[2]; Mycosphaerella arachidis, 0.2500 ppm
  inhibition at 0.25 ppm: 20%
[2]; Mycosphaerella arachidis, 0.5000 ppm
  inhibition at 0.5 ppm: 50%
[3]; [5]
  inhibition at 0.0625 ppm: 0%
[3]; [6]
  inhibition at 0.125 ppm: 0%
[3]; Microdochium nivale
  inhibition at 0.25 ppm: 0%
[3]; Microdochium nivale, 0.5000 ppm
  inhibition at 0.5 ppm: 0%
[3]; Microdochium nivale, 1.0000 ppm
  inhibition at 1 ppm: 0%
[3]; Microdochium nivale, 2.0000 ppm
  inhibition at 2 ppm: 0%
[4]; Colletotrichum orbiculare, 0.2500 ppm
  inhibition at 0.25 ppm: 0%
[4]; Colletotrichum orbiculare, 0.5000 ppm
  inhibition at 0.5 ppm: 0%
[4]; Colletotrichum orbiculare, 1.0000 ppm
  inhibition at 1 ppm: 20%
[4]; Colletotrichum orbiculare, 2.0000 ppm
  inhibition at 2 ppm: 20%
